Experimental data as given in publication PMC9867241, “Antioxidant and Cytotoxic Activity of New Polyphenolic Derivatives of Quinazolin-4(3H)-one: Synthesis and In Vitro Activities Evaluation” (Pharmaceutics, 2022).
Converted amounts (≈) assume the structure as drawn. Blank lines part the entries; values can stand above or below the compound they belong to.

What was measured:
[1] = test system: LNCaP (prostate carcinoma) cells; assay: Cytotoxicity, Alamar blue assay, LNCaP cells; format: cell-based; settings: Homo sapiens, 24 h exposure
Description: (§1) Normal human foreskin (BJ) fibroblasts and two types of cancer cells, namely A549 (lung adenocarcinoma) and LNCaP (prostate carcinoma) purchased from American Type Culture Collection (Manassas, VA, USA), were used in the experiments. Each cell line was maintained in a different culture medium, depending on the metabolic necessities of the cells. BJ cells were maintained in Dulbecco’s modified Eagle’s medium (DMEM) with low glucose. A549 cells were maintained in DMEM with high glucose […], while LNCaP cells were grown in Roswell Park Memorial Institute (RPMI) 1640 medium with high glucose (5 g/L). All media used were supplemented with 10% fetal bovine serum (FBS) and were refreshed every two days. Cells were used in experiments or subcultured when they reached 70–80% confluence.
(§2) In 100 µL in 96-well plates, a number of 30,000 LNCaP cells, 15,000 A549 cells, and 7500 normal (BJ) cells were seeded. Because the cells have different sizes and volumes, the purpose of the different seedings was to achieve a confluency of 70–80% after 24 h. All types of cells were further exposed to the synthesized compounds (5a–d and 6a–d) for 24 h, at a concentration ranging from 12.5 to 100 µg/mL. Post-exposure, the media were removed, and the cells were washed with phosphate buffer saline (PBS). Their viability was evaluated using Alamar blue (AB) assay as previously described. Briefly, the cells were incubated with a 200 µM resazurin solution for 4 h. Using a Synergy 2 multi-mode microplate reader, we measured the fluorescence. The measurement was performed at λexcitation = 530/25 nm; λemission = 590/35 nm. We conducted the experiments using three biological replicates, each one including 6 technical replicates. As negative controls (NC), cells exposed to culture medium containing 0.2% DMSO were used. Compared to the NC (100%), the results were expressed as relative values. We used IC50 values for the potency evaluation, and calculated them for each cell line, using the dose-effect curves obtained by fitting the experimental data with a 4-parameter logistic curve.
(§3) Mean values ± standard deviation (SD) values of at least three biological replicates were used to calculate experimental data. One-way analysis of variance (ANOVA) with a post hoc Holm–Sidak test was used to statistically examine the data. Using SigmaPlot 11.0 software (Systat, Software Inc., Chicago, IL, USA), we performed the graphical display and data analysis. From a statistical point of view, the results were considered different, at values of p < 0.05.

[2] = test system: A549 (lung adenocarcinoma) cells; assay: Cytotoxicity, Alamar blue assay, A549 cells; format: cell-based; settings: Homo sapiens, 24 h exposure
Description: as §1, §2, §3

[3] = Reducing power (RP) assay; design: concentration or dose not given beside the values; settings: for RP, % of Activity of Trolox: relative to Trolox; for RP, % of Activity of Ascorbic Acid: relative to ascorbic acid
Description: Herein, the iron (III) is not free in the solution as it was in the FRAP assay and is complexed by cyanide ions. The evaluation of the reducing power (RP) was performed at a pH closer to neutral (pH = 6.6); this is different from the FRAP test, which is performed in an acidic environment. Against a blank sample, the absorbances were measured at λ = 700 nm. The followed protocol was based on the adaptation of previously reported protocols and was previously reported by our group. Using Equation (4), we calculated the reducing power of the 5a–d and 6a–d compounds as a percentage of the reference compounds activity.
The evaluated compounds can reduce ferricyanide to ferrocyanide, in the presence of ferric ions, resulting in the Perl’s Prussian which gives blue. The higher the percentage of reducing power, the higher was the absorbance that was measured due to a higher amount of colored complex resulting from the reaction.

[4] = Fe^2+ chelation assay (ferrozine competition)
Description: In the protocol used for evaluating the Fe^2+ chelating ability of the compounds, the absorbances of the solutions were determined at λ = 562 nm, against a blank sample. The method was adapted from the initial report of Benzie and Strain et al., which was previously reported by our group. Using Equation (5), we calculated the iron chelation capacities of the 5a–d and 6a–d compounds:(5) iron chelation (%)=control absorbance−sample absorbance/control absorbance×100
The chelating capacity of the tested compounds of Fe^2+ was evaluated based on their competition for Fe^2+ with ferrozine.

[5] = Cupric reducing antioxidant capacity (CUPRAC) assay; design: concentration or dose not given beside the values; settings: for CUPRAC, % of Activity of Trolox: relative to Trolox; for CUPRAC, % of Activity of Ascorbic Acid: relative to ascorbic acid
Description: The ability to donate electrons was evaluated for the compounds 5a–d and 6a–d, by the CUPRAC (CUPric reducing antioxidant capacity) method. The absorbance was measured against a blank sample, at λ = 450 nm. The assay was performed based on our group’s previous report by the adaptation of the initial report of Alam et al., Özyürek et al. and Apak et al.. With the use of Equation (4), the cupric ion reduction by compounds 5a–d and 6a–d was expressed as a percentage of the reference compound activity.
The Cu^2+ ions are reduced to Cu^+ ions by the electron-donating compounds. The Cu^+ ions are chelated by neocuproine, giving a colored complex with absorbance proportional to the quantity of Cu^+ ions that resulted.

[6] = NO˙ radical scavenging assay (Griess reaction); settings: PBS pH 7.4, sodium nitroprusside
Description: The scavenging of the NO˙ radical was performed by applying previously reported protocols. The in vitro protocol describes the decomposition of sodium nitroprusside in phosphate buffered saline (PBS) at pH = 7.4. The NO˙ radicals would be involved in a Griess reaction if they were not captured by the tested compounds. This reaction results from the formation of an azo dye, with maximum absorption at 546 nm. This azo dye is formed from sulfanilic acid and naphthyl ethylenediamine dichloride.

[7] = DPPH˙ radical scavenging assay
Description: The stock solutions (1 mg/mL) of the tested compounds and the controls were obtained, by dissolving the substances in dimethyl sulfoxide (DMSO). Using Jasco V-530, an UV-VIS spectrophotometer (Jasco International Co., Ltd., Tokyo, Japan), we performed the colorimetric determinations in low-volume single-use 10 mm width cuvettes.
The assays were performed in triplicate and the results are presented as averages for each assay.
The DPPH˙ radical scavenging assay is based on the transfer of one hydrogen from the analyzed compound to the violet stable free radical DPPH˙ (2,2-diphenyl-1-picrylhydrazyl), as we convert it into a yellow compound. The absorbance of the reagent mixed with samples presented inversely proportional values to the amount of DPPH˙ neutralized. The absorbance of the reagent was measured at λ = 517 nm, according to our previous reports. The assay was made in the presence of various concentrations of samples. The used protocol is based on the report of Brand-Williams et al..

- IC50 [7]: > 30 µM
- IC50 (DPPH˙ scavenging) [7]: >15 µg/mL
SMILES: CCCCn1c(SCC(=O)NN=C(C)c2ccc(O)cc2O)nc2ccccc2c1=O [Compound 6d, 2-((3-butyl-4-oxo-3,4-dihydroquinazolin-2-yl)thio)-N’-(1-(2,4-dihydroxyphenyl)ethylidene)acetohydrazide]
- IC50 [1]: 24.3 µg/mL
- IC50 [2]: 32.4 µg/mL
- RP, % of Activity of Trolox [3]: 24.53%
- RP, % of Activity of Ascorbic Acid [3]: 16.84%
- Ferrous ions Chelation Capacity (%) ([4]; 17.70 µg/mL): - (- represents less than 5%)
- Ferrous ions Chelation Capacity (%) ([4]; 20.59 µg/mL): - (- represents less than 5%)
- Ferrous ions Chelation Capacity (%) ([4]; 29.41 µg/mL): - (- represents less than 5%)
- Ferrous ions Chelation Capacity (%) ([4]; 44.11 µg/mL): - (- represents less than 5%)
- Ferrous ions Chelation Capacity (%) ([4]; 58.82 µg/mL): - (- represents less than 5%)
- Ferrous ions Chelation Capacity (%) ([4]; 88.23 µg/mL): - (- represents less than 5%)
- Ferrous ions Chelation Capacity (%) ([4]; 117.64 µg/mL): - (- represents less than 5%)
- Ferrous ions Chelation Capacity (%) ([4]; 257.46 µg/mL): - (- represents less than 5%)
- Ferrous ions Chelation Capacity (%) ([4]; 343.28 µg/mL): - (- represents less than 5%)
- CUPRAC, % of Activity of Trolox [5]: 11.25%
- CUPRAC, % of Activity of Ascorbic Acid [5]: 11.80%
- % of NO˙ Scavenged [6]: 30.71%
- % of DPPH˙ Scavenging ([7]; 1.25 µg/mL): - (- represents less than 5%)
- % of DPPH˙ Scavenging ([7]; 2.5 µg/mL): - (- represents less than 5%)
- % of DPPH˙ Scavenging ([7]; 3.75 µg/mL): - (- represents less than 5%)
- % of DPPH˙ Scavenging ([7]; 5 µg/mL): - (- represents less than 5%)
- % of DPPH˙ Scavenging ([7]; 7.5 µg/mL): - (- represents less than 5%)
- % of DPPH˙ Scavenging ([7]; 10 µg/mL): - (- represents less than 5%)
- % of DPPH˙ Scavenging ([7]; 12.5 µg/mL): 10.99%
- % of DPPH˙ Scavenging ([7]; 15 µg/mL): 13.87%

- IC50 [7]: 6.47 µM
- IC50 (DPPH˙ scavenging) [7]: 2.76 µg/mL (≈ 6.47 µM)
SMILES: C=CCn1c(SCC(=O)NN=Cc2ccc(O)c(O)c2O)nc2ccccc2c1=O [Compound 5a, 2-((3-Allyl-4-oxo-3,4-dihydroquinazolin-2-yl)thio)-N’-(2,3,4-trihydroxybenzylidene)acetohydrazide]
- IC50 [1]: 45.6 µg/mL
- IC50 [2]: 30.9 µg/mL
- RP, % of Activity of Trolox [3]: 92.09%
- RP, % of Activity of Ascorbic Acid [3]: 63.20%
- Ferrous ions Chelation Capacity (%) ([4]; 17.70 µg/mL): - (- represents less than 5%)
- Ferrous ions Chelation Capacity (%) ([4]; 20.59 µg/mL): - (- represents less than 5%)
- Ferrous ions Chelation Capacity (%) ([4]; 29.41 µg/mL): - (- represents less than 5%)
- Ferrous ions Chelation Capacity (%) ([4]; 44.11 µg/mL): - (- represents less than 5%)
- Ferrous ions Chelation Capacity (%) ([4]; 58.82 µg/mL): 18.44%
- Ferrous ions Chelation Capacity (%) ([4]; 88.23 µg/mL): 34.12%
- Ferrous ions Chelation Capacity (%) ([4]; 117.64 µg/mL): 45.93%
- Ferrous ions Chelation Capacity (%) ([4]; 257.46 µg/mL): 71.76%
- Ferrous ions Chelation Capacity (%) ([4]; 343.28 µg/mL): 86.30%
- CUPRAC, % of Activity of Trolox [5]: 126.56%
- CUPRAC, % of Activity of Ascorbic Acid [5]: 132.79%
- % of NO˙ Scavenged [6]: 38.39%
- % of DPPH˙ Scavenging ([7]; 1.25 µg/mL): 41.09%
- % of DPPH˙ Scavenging ([7]; 2.5 µg/mL): 49.94%
- % of DPPH˙ Scavenging ([7]; 3.75 µg/mL): 54.93%
- % of DPPH˙ Scavenging ([7]; 5 µg/mL): 62.06%
- % of DPPH˙ Scavenging ([7]; 7.5 µg/mL): 73.89%
- % of DPPH˙ Scavenging ([7]; 10 µg/mL): + (+ represents more than 95%)
- % of DPPH˙ Scavenging ([7]; 12.5 µg/mL): + (+ represents more than 95%)
- % of DPPH˙ Scavenging ([7]; 15 µg/mL): + (+ represents more than 95%)
